In brackets after ≈: the same amount, converted by molar mass. Entries after “also recorded” stand apart in the source; their conditions may differ. Read-outs that look alike come from different tables or passages of the source.
What was measured:
Marisa cornuarietis [1] = conditions: ref Oehlmann et al. 2000; cited from earlier work
Potamopyrgus antipodarum = conditions: exposure via sediments; ref Duft et al. (2003); cited from earlier work
[2] = cited from earlier work
Caenorhabditis elegans = conditions: ref Tominaga et al. (2003); cited from earlier work
[3] = test system: freshwater sponges (Heteromyenia sp.); conditions: ref Hill et al. (2002); cited from earlier work
[4] = test system: Japanese medaka (Oryzias latipes); conditions: ref Metcalfe et al. 2001; cited from earlier work
[5] = test system: swordtails (Xiphophorus helleri); conditions: male fish; ref Kwak et al. 2001; cited from earlier work
Acartia tonsa = conditions: ref Andersen et al. (1999); cited from earlier work
[6] = test system: aquatic organisms (vertebrates and invertebrates); conditions: ref Hirano et al. 2004, Ike et al. 2002; cited from earlier work
C. riparius = conditions: freshly emerged midges, 1 to 3,000 μg/L; ref Hahn et al. (2002); cited from earlier work
Marisa cornuarietis [7] = experiment: Exposure series I: 6-month semistatic exposure of sexually mature snails at 22°C; type: in vivo
vertebrate ER = conditions: ref Bolger et al. 1998; cited from earlier work
Marisa cornuarietis [8] = type: in vivo; conditions: for EC10 (95% confidence intervals), clutch production / EC10 (95% confidence intervals), egg production / NOEC, clutch production / NOEC, egg production: entire duration; for Oviduct malformations under co-exposure with BPA: 5 μg BPA/L plus 3 μg ICI 182,780/L or 10 μg tamoxifen/L
[9] = target: ER-like binding site (specific [3H]-E2 binding); experiment: Competitive displacement of specific [3H]-E2 binding in gonad cytosolic extracts; conditions: for IC50: read-out: IC50, displacement of specific [3H]-E2 binding, 24 nM [3H]-E2, 18 hr incubation, n = 3; for Displacement activity / affinity for ER-like binding site (in words): 24 nM [3H]-E2
[10] = ref Heemken et al. 2001; Staples et al. 1998; cited from earlier work
[11] = prespawning period (days 0–65), 22°C, based on measured BPA concentrations
[12] = prespawning period, 22°C, measured concentrations
[13] = 20°C, measured BPA concentrations
[14] = 27°C, measured BPA concentrations

CC(C)(c1ccc(O)cc1)c1ccc(O)cc1 [BPA, 4,4′-isopropylidine diphenol]
Concentration inducing superfeminization syndrome (as low as) (Marisa cornuarietis [1]): 1 ng/mL | EC10, increase of embryo numbers in the brood pouch (superfemale response) (Potamopyrgus antipodarum): 0.22 μg BPA/kg | half-life (degradation) ([2]; in sewage treatment plants, ref Howard 1989): 28 days | half-life (degradation) ([2]; in water, ref Dorn et al. 1987): 2.5 to 4 days | LC50 (Caenorhabditis elegans): > 100 µM | Concentration completely inhibiting germination [3]: 80000 ng/mL | Concentration range with significant reductions in growth rates [3]: 160 to 160000 ng/mL | Concentration inducing ovotestes (as low as) [4]: 10 ng/mL | Concentration range inhibiting development of the sword [5]: 0.2 to 20 ng/mL | Concentration with increase of egg production (Acartia tonsa): 20 μg BPA/L | 96-hr LC50 (median lethal concentration) [6]: 1000 to 20000 ng/mL | Reduction of yolk protein contents (C. riparius): 20–25% | Cumulative clutch and egg production compared with SC (Marisa cornuarietis [7]; entire experiment, nominal BPA 0.1, 0.5 and 1 μg/L, PC 0.01 μg/L EE2, p < 0.05): significantly more | Incidence of superfemales with oviduct malformations (Marisa cornuarietis [7]; nominal 0.05 μg/L BPA, 22°C): 1.2% | Incidence of superfemales with oviduct malformations (Marisa cornuarietis [7]; nominal 0.1 μg/L BPA, 22°C): 0% | Incidence of superfemales with oviduct malformations (Marisa cornuarietis [7]; nominal 0.25 μg/L BPA, 22°C): 2.0% | Incidence of superfemales with oviduct malformations (Marisa cornuarietis [7]; nominal 0.5 μg/L BPA, 22°C): 3.1% | Incidence of superfemales with oviduct malformations (Marisa cornuarietis [7]; nominal 1 μg/L BPA, 22°C): 3.2% | EC10 (95% confidence intervals), clutch production (Marisa cornuarietis [7]; [11]): 14.6 (13.8–15.4) ng/L | EC10 (95% confidence intervals), egg production (Marisa cornuarietis [7]; [11]): 13.9 (12.8–15.0) ng/L | LOEC, clutch production (Marisa cornuarietis [7]; [12]): 48.3 ng/L | LOEC, egg production (Marisa cornuarietis [7]; [12]): 48.3 ng/L | NOEC, clutch production (Marisa cornuarietis [7]; [12]): 7.9 ng/L | NOEC, egg production (Marisa cornuarietis [7]; [12]): 7.9 ng/L | Imposex development (Marisa cornuarietis [7]; sexually mature snails, 22°C, ANOVA and Weir test p > 0.2): did not induce imposex development | Affinity to the vertebrate ER (in words) (vertebrate ER): weak affinity | Imposex development (Marisa cornuarietis [8]; 20°C and 27°C, ANOVA and Weir test p > 0.5): did not induce imposex development | Size of genital organs (penis pouch, penis sheath, penis) in males (Marisa cornuarietis [8]; 20°C or 27°C, with the exception of penis length at 20°C): did not affect | EC10 (95% confidence intervals), clutch production (Marisa cornuarietis [8]; [13]): 18.0 (6.20–52.4) ng/L | EC10 (95% confidence intervals), egg production (Marisa cornuarietis [8]; [13]): 14.8 (6.07–36.2) ng/L | NOEC, clutch production (Marisa cornuarietis [8]; 20°C, measured concentrations): < 106 ng/L | NOEC, egg production (Marisa cornuarietis [8]; 20°C, measured concentrations): < 106 ng/L | LOEC, clutch production (Marisa cornuarietis [8]; 20°C, measured concentrations): 106 ng/L | LOEC, egg production (Marisa cornuarietis [8]; 20°C, measured concentrations): 106 ng/L | Incidence of superfemales with oviduct malformations (Marisa cornuarietis [8]; 20°C, nominal 0.25 μg/L BPA): 4.8 | Incidence of superfemales with oviduct malformations (Marisa cornuarietis [8]; 20°C, nominal 0.5 μg/L BPA): 8.0 | Incidence of superfemales with oviduct malformations (Marisa cornuarietis [8]; 20°C, nominal 1 μg/L BPA): 14.8 | Incidence of superfemales with oviduct malformations (Marisa cornuarietis [8]; 20°C, nominal 5 μg/L BPA): 11.5 | Mortality compared to SC (Marisa cornuarietis [8]; 20°C, 0.25, 0.5, 1 and 5 μg BPA/L, χ2 test): increased significantly | Clutch and egg production compared with SC (Marisa cornuarietis [8]; 20°C, cumulative p < 0.01, per female p < 0.001): significantly more | Penis length in males (Marisa cornuarietis [8]; 20°C, p < 0.01): significant decrease; also recorded: concentration-dependent reduction | EC10 (95% confidence intervals), clutch production (Marisa cornuarietis [8]; [14]): 2090 (796–5,460) ng/L | EC10 (95% confidence intervals), egg production (Marisa cornuarietis [8]; [14]): 998 (161–6,200) ng/L | NOEC, clutch production (Marisa cornuarietis [8]; 27°C, measured concentrations): ≥ 1990 ng/L | NOEC, egg production (Marisa cornuarietis [8]; 27°C, measured concentrations): 205 ng/L | Clutch production compared with control (Marisa cornuarietis [8]; 27°C, groups exposed solely to BPA): none of the groups exposed solely to BPA produced significantly more clutches | EC10, clutch production (Marisa cornuarietis [8]; [14]): 2.09 ng/mL (≈ 9.15 nM) | EC10, egg production (Marisa cornuarietis [8]; [14]): 0.998 ng/mL (≈ 4.37 nM) | LOEC, egg production (Marisa cornuarietis [8]; 27°C, measured concentrations): 436 ng/L | Cumulative egg production compared with SC (Marisa cornuarietis [8]; 27°C, only at nominal 1 and 5 μg/L, p < 0.05): significant increase | IC50 [9]: 24.8 µM | log KOW [10]: 2.20–3.82

C[C@]12CC[C@@H]3c4ccc(O)cc4C[C@@H](CCCCCCCCC[S+]([O-])CCCC(F)(F)C(F)(F)F)[C@H]3[C@@H]1CC[C@@H]2O (stereo partly shown) [ICI, ICI 182,780, reference compound]
Imposex intensities compared to SC under co-exposure with BPA (Marisa cornuarietis [8]; 5 μg BPA/L plus 3 μg ICI 182,780/L, both temperatures, Weir test p < 0.05): imposex intensities increased | Oviduct malformations under co-exposure with BPA (Marisa cornuarietis [8]; 20°C): No oviduct malformations

C[C@]12CC[C@@H]3c4ccc(O)cc4CC[C@H]3[C@@H]1CC[C@@H]2O [E2]
IC50 [9]: 0.753 µM

CC/C(=C(\c1ccccc1)c1ccc(OCCN(C)C)cc1)c1ccccc1 [Tam, tamoxifen, reference compound]
Oviduct malformations under co-exposure with BPA (Marisa cornuarietis [8]; 20°C): No oviduct malformations | Displacement activity / affinity for ER-like binding site (in words) [9]: moderate affinity

C[C@]12CC[C@H]3[C@@H](CCC4=CC(=O)CC[C@@]43C)[C@@H]1CC[C@@H]2O [T, testosterone]
Displacement activity / affinity for ER-like binding site (in words) [9]: only weak displacement activity

— PMC1874184 (Environmental Health Perspectives, 2005)
